Data on 88 molecules can be found in a melting point compilation (Tetko et al.; mined from patent text by program, amines drawn as free bases though some values may be those of a salt).

Turning to `O=C(O)CCC(CC1(C(=O)NC2CCC(C(=O)OCc3ccccc3)CC2)CCCC1)C(=O)OCc1ccccc1` (stereo not drawn), the melting point (as a rule, the temperature of the solid-liquid transition) was in the range of 103 to 104 °C.
Molecule `CN(C)S(=O)(=O)c1cccc(-c2nc(N)nc(N)n2)c1` yielded a melting point of 250 to 251 °C.
Take `CN(C)C1(c2ccccc2)CCC(CNC(=S)NCCc2c[nH]c3ccccc23)CC1` (stereo not drawn): the melting point fell in the range of 92 to 95 °C.
In the case of `COc1ccc(COC(=O)[C@@H]2C[C@@H](O)CN2C(=O)OCc2ccc([N+](=O)[O-])cc2)cc1`, the melting point was in the range of 83 to 85 °C.
`CC(C)(C)OC(=O)Nc1ccn2nc(N3CCOCC3)nc2c1` displayed a melting point of 92 to 93 °C.
With `FCc1cccc(C#CCCc2nc3ccccc3s2)n1` the figure was 74 to 76 °C; with `CCOC(=O)c1cc(-c2ccc(-c3ccco3)cc2)n(-c2ccc(S(C)(=O)=O)cc2)n1`, 181 °C.
To `CCN(C(C)=O)c1cccc(-c2ccc3nnc(N)n3n2)c1` belongs 192 to 193 °C; to `Cc1ncncc1NC(=O)c1ccc(-n2nc(C(F)(F)F)cc2C2CC2)c(F)c1`, 150 to 152 °C.
Regarding `Brc1ccc2c(c1)COCO2`, the melting point was in the range of 43 to 47 °C.
The molecule `CCOC(=O)C(C(=O)c1ccc(OC)cc1)N(N)c1ccccn1` (stereo not drawn) showed a melting point of 130 to 131 °C.
`O=C(Nc1c(C(O)(C(F)(F)F)C(F)(F)F)ccc2ccccc12)c1ccc(OC(F)(F)F)cc1` gave a melting point of 179 to 180 °C.
The molecule `CCOC(=O)c1cnc2n(c1=O)c1ccccc1c1ncc(C(=O)OCC)c(=O)n12` gave a melting point of 193 to 195 °C.
With `O=C1NC(=O)C(c2cn3c4c(cccc24)CCC3)C1c1cccc(O)c1` (stereo not drawn), the melting point fell in the range of 108 to 110 °C.
With `Fc1ccc(Cn2c(NC3CCN(CCc4ccccn4)CC3)nc3ccccc32)cc1` the figure was 133 °C; with `C=C(C#N)C(=O)OCC(C)(C)C`, 40 to 41 °C.
`Cc1ccc(C(=O)C=Cc2cc(O)c(O)c([N+](=O)[O-])c2)cc1`: the melting point lay within 184 to 186 °C.
To `O=C(O)Cc1cncc(Cc2nc3c(F)c(F)cc(F)c3s2)c1` belongs 196 to 197 °C; to `O=C(Nc1ccc(Cl)cn1)c1ccc(OC(F)F)c2oc3ccccc3c12`, 155 to 157 °C.
In turn, `N#CNC(=Nc1ccncc1)NCCOc1ccccc1` showed a melting point of 167 to 170 °C.
The molecule `CCOc1ccc(-c2nc(-c3ccc(SC(=O)N(C)C)c(C(=O)OC)c3)cs2)cc1OCC` had a melting point of 108 to 109 °C.
Molecule `COC(=O)c1ccc(NC(=O)c2ccccc2-c2ccccc2)c(OC)c1` had a melting point of 115 to 117 °C.
With `COc1ccc2[nH]cc(CN(C)C)c2c1Cl` the figure was 145 to 149 °C; with `Cc1nc2c(-c3cccc(N4CCC(N5CCCC5)CC4)c3)cnn2c(N)c1-c1cccc(Cl)c1`, 188 to 193 °C; with `O=C(O)c1ccc(OCCNC(=O)C2Cc3ccccc3N2S(=O)(=O)c2ccc(-c3cccc(C(F)(F)F)c3)cc2)cc1Cl` (stereo not drawn), 104 to 108 °C.
For the molecule `CC(C)Nc1n[nH]c(=O)n1N`, the melting point was 150 to 152 °C.
To `CC(=O)NC12CC3(C)CC(C)(CC(CO)(C3)C1)C2` belongs 152 to 153 °C; to `CC(F)(C(N)=O)c1ccc(OS(=O)(=O)C(F)(F)F)cc1` (stereo not drawn), 75 to 78 °C; to `CSc1sc(-c2ccn(C)n2)c2c1-c1oncc1C(C)(C)C2`, 128 to 130 °C.
For `O=C(CCl)NCc1ccc(-c2cc3c(Nc4ccc(F)c(Cl)c4)ncnc3[nH]2)cc1`, the melting point was in the range of 320 to 325 °C.
To `CNc1ccc(F)c(C#N)c1` belongs 64 to 65 °C.
The molecule `COc1cccc(S(=O)(=O)N2CCc3cc(O)c(OC)cc3C2)c1` returned a melting point of 168 to 170 °C.
To `Cc1sc2c(c1C(=O)CCCl)NC(=O)CCC2` belongs 86 to 87 °C.
Consider `NC(=O)Cn1c(-c2cccc(Cl)c2)nc2cccnc21`, for which the melting point is 245 to 247 °C.
`COc1ccc2c(c1)C(=O)C(Br)=C(Br)C2=O` displayed a melting point of 146 to 148 °C.
`CC(C)(C)OC(=O)NCC(Cl)c1cccs1` (stereo not drawn) registered a melting point of 40 to 43 °C.
In turn, `CC1=CC(O)C(OC(=O)c2ccc(N)cc2)C(C)(C)CC1=O` (stereo not drawn) registered a melting point of 170 to 171 °C.
In turn, `CC(=O)OC1CSC(Sc2ccc(-c3ccc(C#N)cc3)cc2)C(OC(C)=O)C1OC(C)=O` (stereo not drawn) gave a melting point of 150 °C.
For the molecule `CCCCCS(=O)(=O)NC(=O)/C=C/c1ccc(OCCC2OCCO2)cc1Oc1ncc(C(F)(F)F)cc1Cl`, the melting point was 116 to 118 °C.
Molecule `O=C(N[C@@H]1CN(C2CCCCC2)C[C@H]1O)c1ccccc1` (relative stereo) had a melting point of 154 to 156 °C.
`CCN(CC)CCOc1ccc(Nc2ncc3ccc(=O)n(C(C)C)c3n2)cc1` had a melting point of 84 to 85 °C.
In the case of `O=C(O)COc1ccc(SCc2ccc(OCc3ccc(Cl)c(Cl)c3)cc2)c2c1CCC2`, the melting point amounted to 168 °C.
Consider `Cc1ccc(-c2ncc(OC3SCC(O)C(O)C3O)cc2F)cn1` (stereo not drawn), for which the melting point is 184 °C.
Take `Cc1c(C)c2c(c(C)c1NS(=O)(=O)CCCC(F)(F)F)C(c1ccc(C(C)C)cc1)CO2` (stereo not drawn): the melting point is 149 to 150 °C.
With `CCN(CC)CC1COCCN1CCNC(=O)N1c2ccccc2C(=O)Nc2cccnc21` (stereo not drawn) the figure was 150 to 151 °C; with `OCCCNc1nc2ccccc2n1-c1ccccc1`, 116 to 118 °C; with `CC(C)(C)C(NC(=O)Cc1ccc2c(c1)OCCO2)NC(=NC#N)Nc1cccc2ncccc12` (stereo not drawn), 191 to 192 °C.
To `CCOC(=O)c1ccc(N)c(CNC(C)(C)C)c1` belongs 77 to 79 °C; to `NC(=NO)c1ccc2c(c1)nc(-c1ccc(OCc3ccccc3)cc1)n2C1CCCC1`, 225 to 226 °C; to `O=C1CCS(=O)(=O)C(CC(=O)c2ccccc2)C1` (stereo not drawn), 158 to 159 °C.
For `C#Cc1ccc(Nc2c(C(=O)c3nccn3C)ccc(F)c2F)c(F)c1`, the melting point worked out at 166 °C.
With `COc1cc(-c2ncn(Cc3ccccc3)c2-c2scc(OC)c2OC)cc(OC)c1OC` the figure was 114 to 115 °C.
`CCOC(=O)CN1[C@H](C)CN(c2ccc(N)cc2C#N)C[C@@H]1C` registered a melting point of 45 °C.
On to `COc1ccc(-c2nc(CNC(=O)OCc3ccccc3)sc2-c2cccnc2)cc1`, for which the melting point lay within 93 to 94 °C.
Take `CCOC(=O)c1ncc2[nH]c3ccc(C(=O)OCc4ccccc4)cc3c2n1`: the melting point lay in the range of 271 to 272 °C.
`CCc1cn2ccccc2c1S(=O)(=O)c1ccc(OCCCN(C)C(C)c2ccc(OC)c(OC)c2)cc1` (stereo not drawn) came in with a melting point of 78 to 80 °C.
Turning to `CON=C1CCc2c(cccc2OCC(O)CN2CCN(C(c3ccccc3)c3ccccc3)CC2)C1` (stereo not drawn), the melting point is > 183 °C.
`COC(=O)CC1=CN=C(SC)NC1(C)O` (stereo not drawn) showed a melting point of 200 °C.
`COc1ccc([N+](=O)[O-])c(C=CN2CCCC2)c1Cl`: the melting point was in the range of 89 to 92 °C.
With `COc1cc2sc(C#N)cc2c(Cl)c1OC`, the melting point was in the range of 159 to 160 °C.
In turn, `Cc1cccc(Cl)c1CNc1c(NC(C)(C)C)c(=O)c1=O` displayed a melting point of 254 to 257 °C.
With `CCCc1nc2cc3c(cc2[nH]1)NC(=O)C3C` (stereo not drawn), the melting point lay in the range of 235 to 238 °C.
In turn, `O=C(O)CC1=CSCCS1` came in with a melting point of 82 °C.
Consider `CC(=O)Nc1c(C(=O)c2cccc(C)n2)[nH]c2cc(Cl)c(Br)cc12`, for which the melting point is 234 to 236 °C.
For `c1ccc(-c2cc(-c3nc(-c4ccccc4)nc(-c4ccccc4)n3)c(-c3nccc4ccccc34)c(-c3cc4ccccc4c4ccccc34)c2)cc1`, the melting point was 272 °C.
`CCn1nc(-c2ccccc2F)nc1-c1ccccc1C(F)(F)F`: the melting point lay within 72 to 74 °C.
Consider `COc1cccc(-c2noc3cc(F)ccc23)c1`, for which the melting point was 68 to 69 °C.
As for `CC1(O)CCC2C3CCC45OC4(C)C(O)=C(C#N)CC5(C)C3CCC21C` (stereo not drawn), the melting point lay in the range of 170 to 171 °C.
For `Nc1ccc(-c2nc(-c3ccco3)no2)cc1`, the melting point fell in the range of 183 to 185 °C.
Molecule `Clc1nc(OCc2ccccc2)c2[nH]cnc2n1` returned a melting point of 195 to 196 °C.
`COc1cc2c(c(OC(C)=O)c1OC)=NC(=O)C(=O)N=2` showed a melting point of 321 to 322 °C.
Regarding `NC(=O)N1CCCN(NC(=O)OCc2ccccc2)C1=O`, the melting point amounted to 136 °C.
`Cc1cc(O)c(S(=O)CC(C)C)c(=O)o1` (stereo not drawn) yielded a melting point of 102 to 103 °C.
Turning to `Cc1c(C)c(N2CCN(c3ccc(C(F)(F)F)cc3)CC2)c(C)c2c1OC(C)(C)C2=O`, the melting point lay within 188 to 190 °C.
Molecule `COc1ccc(C(=O)c2ccccc2)cc1OC1CCCC1` yielded a melting point of 73.5 to 75 °C.
Take `O=C(O)CCC(=O)N1CCN(c2ccccn2)CC1`: the melting point is 125 to 127 °C.
In turn, `CC(C)(C)OC(=O)N1CCCC(CCN2C(=O)C3(COc4cc5c(cc43)OCO5)c3ccccc32)C1` (stereo not drawn) yielded a melting point of 64 to 67 °C.
To `CC(C)(C)OC(=O)CN1CCC(CNC(=O)c2cc(Cl)c(N)[nH]c2=O)CC1` belongs 200 to 203 °C; to `CN(C)c1c(S(=O)C(F)(F)F)c(C#N)nn1-c1c(Cl)cc(C(F)(F)F)cc1Cl` (stereo not drawn), 154 to 161 °C; to `CCOC(=O)c1cn(CC)c2nc(-c3ccncc3)c(F)cc2c1=O`, 185 to 186 °C.
To `CCOC(=O)c1cn(-c2ccccc2)c2occc2c1=O` belongs 168 to 170 °C.
In the case of `CN(C)c1ccc(CNC(=O)[C@@H](Cc2ccccc2)NC(=O)CCC(=O)O)cc1`, the melting point lay in the range of 194 to 196 °C.
Consider `OC1CCCC1Oc1ccc(Oc2ccccc2)cc1` (stereo not drawn), for which the melting point lay in the range of 62 to 65 °C.
`O=C1NCCc2c1c1cccc(OCc3ccccc3)c1n2COCc1ccccc1`: the melting point lay in the range of 188 to 190 °C.
Consider `CN1C(=O)C(Cc2c[nH]c3c(Cl)cc(S(C)(=O)=O)cc23)NC1=S` (stereo not drawn), for which the melting point was in the range of 242 to 245 °C.
To `CCCCCCCCSCC(=O)[C@H](Cc1ccccc1)NC(=O)[C@H](CC(C)C)NC(=O)OCc1ccccc1` belongs 69 °C; to `COc1ccc(S(=O)(=O)c2c(Br)cc(CC(=O)O)cc2Br)cc1C(C)C`, 170 to 173 °C.
In turn, `Cc1nc(N2CCN(CC3(C#N)C=CC=CC3)C2=O)sc1C(=O)NCc1ccccc1` (stereo not drawn) displayed a melting point of 176 to 178 °C.
